Values after ≈ are worked out from the molar mass of the structure shown. Read-outs that look alike come from different tables or passages of the source.
Legend:
[1] = tested on: 4th instar larvae of Aedes aegypti; experiment: Larvicidal bioassay/Dose-response bioassay; format: in vivo; conditions: 4th instar Aedes aegypti larvae, 24 h exposure
Protocol: The early 4th instar larvae of Aedes aegypti were selected for evaluation of mosquito larvicidal activity. The larvae were collected and fed with a mixture powdered yeast and dog biscuits. These were maintained in insectaries till the emergence of adults. The colony was photo periodically maintained at 14 L: 10 D (hours) and with relative humidity 80 ± 5 % at 28 °C (Kumar et al., 2010[16]). Adult mosquitoes were fed with blood for egg maturation. The eggs were allowed to hatch in an enamel bowl lined with Whatman filter paper filled with distilled water. The pupae formed were separated and transferred to insectary for the emergence of adults (da Silva et al., 2016[6]).
Based on the preliminary screening results, different concentrations ranging from 25 to 200 ppm were prepared for DEHP and 25 to 1 ppm for DBP were used. The compounds were subjected to dose response bioassay against 4th instar larvae of Aedes aegypti larvae. Dead larvae were counted after 24 h of exposure, and the percentage mortality was reported from the average of triplicates (Govindarajan et al., 2016[9]).

[2] = tested on: A. niger; parameters: method as in Roy et al., 2006 [30]; conditions: DBP isolated from Streptomyces albidoflavus, ref Roy et al., 2006 [30]; cited from earlier work
[3] = tested on: S. typhi; parameters: method as in Roy et al., 2006 [30]; conditions: DBP isolated from Streptomyces albidoflavus, ref Roy et al., 2006 [30]; cited from earlier work
[4] = tested on: HEK 293; experiment: MTT cell proliferation assay; format: cell-based; conditions: Homo sapiens, HEK293; HEK 293, MTT, 24 hrs
Protocol: (§1) The MTT cell proliferation was assessed against the cell lines HeLa (ATCC; CCL-2), A549 (ATCC; CCL-185), MCF-7 (ATCC; HTB-22), DU145 (ATCC; HTB-81), CHO (ATCC; CCL-61), HEK293 (ATCC; CRL-1573), NIH3T3 (ATCC; CRL-1658) were procured from the American Type Culture Collection (ATCC). These cell lines were grown and maintained in Dulbecco's modified Eagle's medium with non-essential amino acids, 10 % fetal bovine serum (FBS), 1 mM sodium pyruvate, in humidified atmosphere containing 5 % CO2 at 37 °C (Esumi et al., 2004[7]).
(§2) The cell lines were seeded in 96-well plates in 200 µL aliquots. The test compounds in different concentrations were added and incubated at 37 °C for 24 hrs. Doxorubicin was used as positive control (Prata-Sena et al., 2016[28]).

[5] = tested on: DU-145; experiment: MTT cell proliferation assay; format: cell-based; conditions: Homo sapiens; DU-145, MTT, 24 hrs
Protocol: as §1, §2

[6] = tested on: MCF-7; experiment: MTT cell proliferation assay; format: cell-based; conditions: Homo sapiens, MCF7; MCF-7, MTT, 24 hrs
Protocol: as §1, §2

[7] = tested on: CHO; experiment: MTT cell proliferation assay; format: cell-based; conditions: Cricetulus griseus, 24 hrs
Protocol: as §1, §2

[8] = tested on: Bacillus subtilis (MTCC 441); experiment: Anti-bacterial activity, MIC in 96-well broth dilution; format: cell-based; conditions: MTCC441, B. subtilis, 24 hrs at 37 °C
Protocol: (§3) The antibacterial evaluation was carried out against Gram positive bacteria; Staphylococcus epidermidis (MTCC 435), Bacillus subtilis (MTCC 441), Staphylococcus aureus (MTCC 96), and Gram negative bacteria; Pseudomonas aeruginosa (MTCC 741), E. coli (MTCC 443) and Klebsiella pneumoniae (MTCC 618). Brevibacterium mcbrellneri MTCC (3913) was chosen for isolation of biologically active compounds.
(§4) The minimum inhibitory concentrations (MIC) were recorded against Staphylococcus aureus, Bacillus subtilis, Staphylococcus epidermidis, Pseudomonas aeruginosa, Escherichia coli and Klebsiella pneumoniae. In brief 96-well plates were distributed with Nutrient broth and the compounds in different concentrations (150 μg/mL to 0.5μg/mL). 50 μL microbial suspensions were seeded into each well (0.5 MacFarland standards) to make the final volume of 200 μl with culture broth. The plates were incubated for 24 hrs at 37 °C. The lowest concentration, at which the visible inhibition was recorded, was considered as MIC. Streptomycin and Benzylpenicillin were used as positive controls.

[9] = tested on: Klebsiella pneumoniae (MTCC 618); experiment: as above; format: cell-based; conditions: MTCC618, K. pneumoniae, 24 hrs at 37 °C
Protocol: as §3, §4

[10] = tested on: E. coli (MTCC 443); experiment: as above; format: cell-based; conditions: Escherichia coli, MTCC443, 24 hrs at 37 °C
Protocol: as §3, §4

[11] = tested on: Staphylococcus epidermidis (MTCC 435); experiment: as above; format: cell-based; conditions: MTCC435, S. epidermidis, 24 hrs at 37 °C
Protocol: as §3, §4

[12] = tested on: Pseudomonas aeruginosa (MTCC 741); experiment: as above; format: cell-based; conditions: MTCC741, P. aeroginosa, 24 hrs at 37 °C
Protocol: as §3, §4

[13] = tested on: Staphylococcus aureus (MTCC 96); experiment: as above; format: cell-based; conditions: MTCC96, S. aureus, 24 hrs at 37 °C
Protocol: as §3, §4

[14] = tested on: S. cerevisiae; parameters: method as in Roy et al., 2006 [30]; conditions: DBP isolated from Streptomyces albidoflavus, ref Roy et al., 2006 [30]; cited from earlier work
[15] = tested on: Curvularia pallescens; parameters: method as in Roy et al., 2006 [30]; conditions: DBP isolated from Streptomyces albidoflavus, ref Roy et al., 2006 [30]; cited from earlier work
[16] = tested on: E. coli; parameters: method as in Roy et al., 2006 [30]; conditions: DBP isolated from Streptomyces albidoflavus, ref Roy et al., 2006 [30]; cited from earlier work
[17] = tested on: B. subtilis; parameters: method as in Roy et al., 2006 [30]; conditions: DBP isolated from Streptomyces albidoflavus, ref Roy et al., 2006 [30]; cited from earlier work
[18] = tested on: A549 cells; parameters: method as in Hsu et al., 2011 [14]; conditions: ref Hsu et al., 2011 [14]; cited from earlier work
[19] = tested on: Sarcina lutea; parameters: method as in Habib and Karim, 2009 [10]; conditions: DEHP isolated from Calotropis gigantean, ref Habib and Karim, 2009 [10]; cited from earlier work
[20] = tested on: HaCaT cells; parameters: method as in Peropadre et al., 2015 [26]; conditions: ref Peropadre et al., 2015 [26]; cited from earlier work
[21] = parameters: method as in Habib and Karim, 2009 [10]; conditions: DEHP isolated from Calotropis gigantean; ref Habib and Karim, 2009 [10]; cited from earlier work
[22] = tested on: HePG2 cells; parameters: method as in Lyu et al., 2016 [19]; conditions: ref Lyu et al., 2016 [19]; cited from earlier work
[23] = tested on: B. subtilis; parameters: method as in Habib and Karim, 2009 [10]; conditions: DEHP isolated from Calotropis gigantean, ref Habib and Karim, 2009 [10]; cited from earlier work

CCCCOC(=O)c1ccccc1C(=O)OCCCC [DBP, dibutyl phthalate]
LC50 [1]: 1.62 ppm
mortality at 25 ppm ([1]; at 25 ppm): 100%
MIC [2]: 98 µg/mL (≈ 352 µM)
MIC [3]: 76 µg/mL (≈ 273 µM)
IC50 [4]: 19.8 ± 10 µg/mL (≈ 71 µM)
IC50 [5]: 31.2 ± 8.7 µg/mL (≈ 112 µM)
IC50 [6]: 32.4 ± 3.6 µg/mL (≈ 117 µM)
IC50 [7]: 36 ± 8.6 µg/mL (≈ 129 µM)
MIC [8]: 18.8 µg/mL (≈ 67.4 µM)
MIC [9]: 75 µg/mL (≈ 269 µM)
MIC [10]: 37.5 µg/mL (≈ 135 µM)
MIC [11]: 18.8 µg/mL (≈ 67.4 µM)
MIC [12]: 37.5 µg/mL (≈ 135 µM)
MIC [13]: 37.5 µg/mL (≈ 135 µM)
MIC [14]: 92 µg/mL (≈ 331 µM)
MIC [15]: 117 µg/mL (≈ 420 µM)
MIC [16]: 53 µg/mL (≈ 190 µM)
MIC [17]: 84 µg/mL (≈ 302 µM)
cytotoxic activity [18]: Cytotoxic activity

CCCCC(CC)COC(=O)c1ccccc1C(=O)OCC(CC)CCCC (centres unmarked) [DEHP, di-(2-ethylhexyl) phthalate]
MIC [19]: 32 µg/mL (≈ 81.9 µM)
cell cycle effect [20]: cell cycle arrest at G1 phase
LC50 [1]: 47.65 ppm
antifungal property [21]: negligible
IC50 [5]: 33.5 ± 7.7 µg/mL (≈ 85.7 µM)
IC50 [6]: 46.55 ± 0.1 µg/mL (≈ 119 µM)
IC50 [7]: 193 ± 5.4 µg/mL (≈ 494 µM)
apoptosis / cell cycle effect [22]: apoptosis without cell cycle arrest
MIC [8]: 37.5 µg/mL (≈ 96 µM)
MIC [9]: 75 µg/mL (≈ 192 µM)
MIC [10]: 37.5 µg/mL (≈ 96 µM)
MIC [11]: 9.37 µg/mL (≈ 24 µM)
MIC [12]: 75 µg/mL (≈ 192 µM)
MIC [13]: 18.8 µg/mL (≈ 48 µM)
MIC [23]: 32 µg/mL (≈ 81.9 µM)

COc1cccc2c1C(=O)c1c(O)c3c(c(O)c1C2=O)C[C@@](O)(C(=O)CO)C[C@@H]3O[C@H]1C[C@H](N)[C@H](O)[C@H](C)O1 [doxorubicin, Doxorubicin, reference compound]
IC50 [4]: 21.8 ± 8.8 µg/mL (≈ 40.1 µM)

From article PMC5427467, “Isolation and characterization of phthalates from Brevibacterium mcbrellneri that cause cytotoxicity and cell cycle arrest” (EXCLI Journal, 2017)
